Results: patent publication US20120009164A1, “Increasing Probiotic Growth Rate and Activity Using Prebiotic Composition” (MASTER SUPPLEMENTS, INC., priority 2010, published 2012)

Columns and labels:
[1] = tested on: THERALAC® Lot # 32310A probiotic strains; assay: Growth of the commercial probiotic Theralac in MRS broth (Example 10); assay type: cell-based, Lactobacillus and Bifidobacterium strains; details: for Lactic Acid % / pH / NTU (Turbidity): additive 0.1% in MRS (polysorbate 80 control: 1.0 g per liter); for NTU (Turbidity): inoculated at 0.1% with THERALAC
Experimental: MRS broth was prepared with (for controls) and without (for tests) polysorbate 80 and filled into 1 liter screw cap flasks at 500 ml each and autoclaved at 121° C. for 30 minutes. Various lecithin and/or oleic acid additives, or nothing (negative control), was added to the tests flasks prior to autoclaving. The flasks were then tempered to 37° C. in a water bath and inoculated at 0.1% with […]® Lot # 32310A, a commercial probiotic product (Master Supplements, Inc., Victoria, Minn.). Capsules of […]® were opened and the contents mixed aseptically to serve as the inoculum source. At an inoculation rate of 0.1%, approximately 80 million CFU was added per ml of MRS media. […]® contains (formulation strength) the following probiotic strains at the approximate CFU values listed per gram: Lactobacillus acidophilus NCFM (LA-1): 30 billion CFU Bifidobacterium lactis Bl-04 (BL-34): 30 billion CFU Lactobacillus paracasei Lpc-37 (F-19): 14 billion CFU Lactobacillus rhamnosus Lr-32 (LR-44): 6 billion CFU Bifidobacterium lactis Bi-07: 8 billion CFU Turbidity, pH and titrations (made with 0.1 N NaOH and reported as % lactic acid) were made at various times up to 23 hours. The results are presented below in Table VI for the 12 and 23-hour analyses.

[2] = tested on: Lactobacillus rhamnosus Lr-32 (LR-44); assay: Growth (turbidity) and lactic acid producing activity in MRS broth, L. rhamnosus Lr-32; assay type: cell-based; details: for Lactic Acid % / NTU (Turbidity) / pH: additive 0.1% in MRS (polysorbate 80 control: 1.0 g per liter)
Experimental: (§1) Prebiotic formulations are often probiotic strain dependent. Some Lactobacillus strains, for example, respond best to a form of lecithin derived from sunflowers (Sunflower Lecithin) while others show no preference to lecithin type and respond equally well to soy lecithin. Other strains show a synergistic response when lecithin is used together with oleic acid. […] Each flask was tempered to 37° C. and aseptically inoculated with 0.14 gm of the individual probiotic strains (in Examples 5 to 10 below) to be tested. At specified time intervals, a 30 ml sample from each flask was aseptically transferred into a HACH […] Turbidimeter sample cell. The turbidity of each sample was read and the results were reported in NTU's. The same 30 ml sample used for the turbidity reading was transferred into a 250 ml glass beaker, and the pH was recorded. The sample was titrated using 0.1N NaOH to an endpoint of pH 6.8, and the quantity of NaOH used was recorded. The % Lactic Acid was calculated using the following formula: % Lactic Acid=((mls of 0.1N NaOH)×(0.1N)×(90 gm/mole)×(1 L/1000 ml))×100 mls of sample % Lactic Acid=(mls of 0.1N NaOH)×(0.9) (Results reported at 12 hours and 23 hours like: 12/23 in Table IV below)

[3] = tested on: Lactobacillus salivarius Ls-33 (LS-30); assay: Growth (turbidity) and lactic acid producing activity in MRS broth, L. salivarius Ls-33; assay type: cell-based; details: for Lactic Acid % / NTU (Turbidity) / pH: additive 0.1% in MRS (polysorbate 80 control: 1.0 g per liter)
Experimental: as §1, with “V” for “IV”

[4] = tested on: Lactobacillus paracasei Lpc-37 (F-19); assay: Growth (turbidity) and lactic acid producing activity in MRS broth, L. paracasei Lpc-37; assay type: cell-based; details: for Lactic Acid % / NTU (Turbidity) / pH: additive 0.1% in MRS (polysorbate 80 control: 1.0 g per liter)
Experimental: as §1, with “III” for “IV”

[5] = tested on: Bifidobacterium lactis Bl-04 (BL-34); assay: Growth (turbidity) and lactic acid producing activity in MRS broth, B. lactis Bl-04; assay type: cell-based; details: additive 0.1% in MRS (polysorbate 80 control: 1.0 g per liter)
Experimental: as §1, with “II” for “IV”

[6] = tested on: L. acidophilus NCFM (LA-1); assay: Growth (turbidity) and lactic acid producing activity in MRS broth, L. acidophilus NCFM; assay type: cell-based, Lactobacillus acidophilus
Experimental: Prebiotic formulations are often probiotic strain dependent. […] At specified time intervals, a 30 ml sample from each flask was aseptically transferred into a HACH […] Turbidimeter sample cell. The turbidity of each sample was read and the results were reported in NTU's. The same 30 ml sample used for the turbidity reading was transferred into a 250 ml glass beaker, and the pH was recorded. The sample was titrated using 0.1N NaOH to an endpoint of pH 6.8, and the quantity of NaOH used was recorded. The % Lactic Acid was calculated using the following formula: % Lactic Acid=((mls of 0.1N NaOH)×(0.1N)×(90 gm/mole)×(1 L/1000 ml))×100 mls of sample % Lactic Acid=(mls of 0.1N NaOH)×(0.9) (Results reported at 12 hours and 23 hours like: 12/23 in Table I below)

[7] = additive 0.1% in MRS (polysorbate 80 control: 1.0 g per liter), 37° C., 12 hours
[8] = additive 0.1% in MRS (polysorbate 80 control: 1.0 g per liter), 37° C., 23 hours
[9] = additive 0.1% in MRS (polysorbate 80 control: 1.0 g per liter), 12 hours
[10] = additive 0.1% in MRS (polysorbate 80 control: 1.0 g per liter), 23 hours
[11] = at the concentrations studied (0.1% + 0.1%)
[12] = additive 0.025% in MRS, 12 hours
[13] = additive 0.025% in MRS, 23 hours

With polysorbate 80 [reference compound] the “Lactic Acid %” value ([1]; 12 hours) was 1.42%, the pH ([1]; 12 hours) was 3.9 and the “Lactic Acid %” value ([1]; 23 hours) was 1.84%. For the same compound, the pH ([1]; 23 hours) was 3.7, the “NTU (Turbidity)” value ([1]; 12 hours) was 3311 NTU and the “NTU (Turbidity)” value ([1]; 23 hours) was 3694 NTU. For the same compound, the “Lactic Acid %” value ([2]; 12 hours) was 1.12%, the “NTU (Turbidity)” value ([2]; 12 hours) was 2804 NTU and the pH ([2]; 12 hours) was 4.0. For the same compound, the “Lactic Acid %” value ([2]; 23 hours) was 1.67%, the “NTU (Turbidity)” value ([2]; 23 hours) was 3776 NTU and the pH ([2]; 23 hours) was 3.7. The “Lactic Acid %” value ([3]; 12 hours) was 1.42%, the “NTU (Turbidity)” value ([3]; 12 hours) was 3426 NTU and the pH ([3]; 12 hours) was 3.8. For the same compound, the “Lactic Acid %” value ([3]; 23 hours) was 1.68%, the “NTU (Turbidity)” value ([3]; 23 hours) was 3931 NTU and the pH ([3]; 23 hours) was 3.7. For the same compound, the “Lactic Acid %” value ([4]; 12 hours) was 0.99%, the “NTU (Turbidity)” value ([4]; 12 hours) was 1664 NTU and the pH ([4]; 12 hours) was 4.2. For the same compound, the “Lactic Acid %” value ([4]; 23 hours) was 1.39%, the “NTU (Turbidity)” value ([4]; 23 hours) was 2824 NTU and the pH ([4]; 23 hours) was 3.9. The “Lactic Acid %” value ([5]; 12 hours) was 0.57%, the “NTU (Turbidity)” value ([5]; 12 hours) was 922 NTU and the pH ([5]; 12 hours) was 4.8. For the same compound, the “Lactic Acid %” value ([5]; 23 hours) was 0.84%, the “NTU (Turbidity)” value ([5]; 23 hours) was 1434 NTU and the pH ([5]; 23 hours) was 4.5. The “NTU (Turbidity)” value [6, 7] was 1855 NTU, the “NTU (Turbidity)” value [6, 8] was 2038 NTU and the “Lactic Acid %” value [6, 9] was 1.09%. For the same compound, the pH [6, 9] was 4.2, the “Lactic Acid %” value [6, 10] was 1.27% and the pH [6, 10] was 4.1.
With `CCCCCCCC/C=C\CCCCCCCC(=O)O` [Oleic Acid, oleic acid] the “effectiveness as polysorbate 80 replacement (conclusion)” value (shortened to “effectiveness”) ([1]; 0.1% inclusion rate in MRS) was “acceptable replacement value”, the “Lactic Acid %” value ([1]; 12 hours) was 1.18% and the pH ([1]; 12 hours) was 4.1. For the same compound, the “Lactic Acid %” value ([1]; 23 hours) was 1.72%, the pH ([1]; 23 hours) was 3.8 and the “NTU (Turbidity)” value ([1]; 12 hours) was 2775 NTU. The “NTU (Turbidity)” value ([1]; 23 hours) was 3529 NTU, the lag phase ([2]; 0.1% in MRS, at 12 hours) was “significant lag phase” and the “effectiveness” value ([2]; 0.1% inclusion rate in MRS) was “not as good a replacement for polysorbate 80 as sunflower lecithin”. The “Lactic Acid %” value ([2]; 12 hours) was 0.072%, the “NTU (Turbidity)” value ([2]; 12 hours) was −30.9 NTU and the pH ([2]; 12 hours) was 6.2. For the same compound, the “Lactic Acid %” value ([2]; 23 hours) was 1.05%, the “NTU (Turbidity)” value ([2]; 23 hours) was 2644 NTU and the pH ([2]; 23 hours) was 4.1. The “synergy of oleic acid with sunflower lecithin (conclusion)” value [2, 11] was “not synergistic”, the lag phase ([3]; 0.1% in MRS, at 12 hours) was “a lag phase is apparent” and the “effectiveness” value ([3]; 0.1% inclusion rate in MRS) was “not as good a replacement”. The “Lactic Acid %” value ([3]; 12 hours) was 0.073%, the “NTU (Turbidity)” value ([3]; 12 hours) was 1440 NTU and the pH ([3]; 12 hours) was 4.4. The “Lactic Acid %” value ([3]; 23 hours) was 1.51%, the “NTU (Turbidity)” value ([3]; 23 hours) was 3578 NTU and the pH ([3]; 23 hours) was 3.8. The “effectiveness” value ([4]; 0.1% inclusion rate in MRS) was “not as effective a replacement for polysorbate 80 as sunflower lecithin”, the “Lactic Acid %” value ([4]; 12 hours) was 0.33% and the “NTU (Turbidity)” value ([4]; 12 hours) was 178 NTU. For the same compound, the pH ([4]; 12 hours) was 5.1, the “Lactic Acid %” value ([4]; 23 hours) was 1.01% and the “NTU (Turbidity)” value ([4]; 23 hours) was 1789 NTU. The pH ([4]; 23 hours) was 4.1, the “synergy of oleic acid with sunflower lecithin (conclusion)” value [4, 11] was “does not appear to be synergistic” and the “effectiveness” value ([6]; 0.1% inclusion rate in MRS) was “somewhat effective”. The “Lactic Acid %” value [6, 12] was 0.70%, the pH [6, 12] was 4.5 and the “Lactic Acid %” value [6, 13] was 0.77%. The “NTU (Turbidity)” value [6, 13] was 603 NTU, the pH [6, 13] was 4.4 and the “NTU (Turbidity)” value [6, 7] was 1451 NTU. The “NTU (Turbidity)” value [6, 8] was 1789 NTU, the “Lactic Acid %” value [6, 9] was 1.03% and the pH [6, 9] was 4.3. For the same compound, the “Lactic Acid %” value [6, 10] was 1.21% and the pH [6, 10] was 4.1.
